Test results published in patent US20240325557A1, “TREATMENT OF CANCER” (INNATE PHARMA, priority 2020, published 2024).

How the values were obtained:
wild-type human Nectin-4 = target: T1, wild-type human Nectin-4 (Homo sapiens, UniProt Q96NY8); assay: Flow cytometry binding to wild-type Nectin-4 expressing CHO cells
T1 construct: expressed in transfected cells; host or cells: CHO (huNectin4 Cl.3C8)
T1 sequence (Q96NY8 32-510): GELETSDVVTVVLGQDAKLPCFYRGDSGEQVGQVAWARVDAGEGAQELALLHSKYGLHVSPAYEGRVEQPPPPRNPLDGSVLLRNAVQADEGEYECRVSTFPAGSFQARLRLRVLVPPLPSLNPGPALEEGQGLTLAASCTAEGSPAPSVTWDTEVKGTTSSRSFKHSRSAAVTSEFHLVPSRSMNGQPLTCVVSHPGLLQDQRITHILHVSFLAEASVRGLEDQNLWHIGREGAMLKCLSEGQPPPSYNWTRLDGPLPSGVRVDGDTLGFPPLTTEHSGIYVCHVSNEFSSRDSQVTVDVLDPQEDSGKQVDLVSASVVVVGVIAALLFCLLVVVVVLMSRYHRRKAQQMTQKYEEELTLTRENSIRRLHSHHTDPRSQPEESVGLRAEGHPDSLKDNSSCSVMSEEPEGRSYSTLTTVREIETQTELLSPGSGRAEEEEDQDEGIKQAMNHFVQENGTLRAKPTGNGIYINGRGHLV
Protocol: plates of hybridoma supernatants were tested for binding on the wild-type human Nectin-4 expressing CHO cell line by flow cytometry. Briefly, Nectin-4 expressing cells were used at 0.2×10^6 cells by well in a buffer of PBS, BSA 0.5%, EDTA 5 mM. The first antibody was incubated with cells for 1h at +5±3° C. in 50 μL of supernatant. […] Acquisition HTFC flow cytometer (Intellicyt), with data analysis on ForeCyt™ software.
(§1) The characterization of the binding of the antibodies on Nectin-4 domains was performed by flow cytometry using cells made to express the wild-type human Nectin-4 protein and cells made to express a modified Nectin-4 having the Ig-like C2 type 1 and the Ig-like C2 type 2 domains and lacking the Ig-like V domain (the C1C2 construct). The latter protein additionally bears a V5 tag for flow cytometry cell sorting, and cells were used as Nectin4-C1C2-V5 sorted cells.
Wild-type Nectin-4 (the CI.3C8 cell line), a C2 construct (containing the Ig-like C2 type 2 domain and lacking both the V and the C1 domains) and the C1C2 construct allow the determination of whether test antibodies bind to the V or different C domains. Briefly, nucleic acid sequences encoding different human Nectin-4 domains were amplified by PCR. The PCR products were inserted into an expression vector at appropriate restriction sites. […]

[1] = target: T2, Hu-Nectin4 IgC1C2-V5 (modified Nectin-4 lacking the Ig-like V domain, C1C2 construct) (Homo sapiens, UniProt Q96NY8); assay: Flow cytometry binding to cells expressing the Nectin-4 C1C2 construct
T2 construct: expressed in transfected cells; host or cells: CHO
T2 sequence (Q96NY8 148-510): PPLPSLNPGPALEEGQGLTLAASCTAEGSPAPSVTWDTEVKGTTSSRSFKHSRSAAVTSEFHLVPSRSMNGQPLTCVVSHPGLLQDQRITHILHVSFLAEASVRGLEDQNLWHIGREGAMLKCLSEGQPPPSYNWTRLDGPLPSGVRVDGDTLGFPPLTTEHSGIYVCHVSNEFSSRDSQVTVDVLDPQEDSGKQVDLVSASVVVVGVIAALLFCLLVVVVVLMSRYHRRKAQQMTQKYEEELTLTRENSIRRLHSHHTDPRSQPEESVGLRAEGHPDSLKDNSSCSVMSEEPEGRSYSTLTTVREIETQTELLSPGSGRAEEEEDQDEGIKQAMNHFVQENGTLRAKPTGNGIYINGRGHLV
Protocol: as §1
Wild-type Nectin-4 (the CI.3C8 cell line), a C2 construct (containing the Ig-like C2 type 2 domain and lacking both the V and the C1 domains) and the C1C2 construct allow the determination of whether test antibodies bind to the V or different C domains. Briefly, nucleic acid sequences encoding different human Nectin-4 domains were amplified by PCR. The PCR products were inserted into an expression vector at appropriate restriction sites. A leader peptide, and for C1C2 and C2 an N-terminal V5 tag having the amino acid sequence […] (SEQ ID NO: 41), were added, and expression at the surface of cells was confirmed by flow cytometry. The amino acid sequences of the resulting different human Nectin-4 domain fragment-containing proteins are shown below (V5 tag underlined). The vectors were then transfected into the CHO cell line to obtain stable clones expressing the different Nectin-4 domain proteins at the cell surface.

[2] = target: T3, wild-type human Nectin-4 protein (huNectin4-his-BirA) (Homo sapiens, UniProt Q96NY8); assay: Affinity determination by SPR (Biacore T200); type: binding; settings: 25° C.
T3 sequence (Q96NY8 with tags, fused parts or gaps): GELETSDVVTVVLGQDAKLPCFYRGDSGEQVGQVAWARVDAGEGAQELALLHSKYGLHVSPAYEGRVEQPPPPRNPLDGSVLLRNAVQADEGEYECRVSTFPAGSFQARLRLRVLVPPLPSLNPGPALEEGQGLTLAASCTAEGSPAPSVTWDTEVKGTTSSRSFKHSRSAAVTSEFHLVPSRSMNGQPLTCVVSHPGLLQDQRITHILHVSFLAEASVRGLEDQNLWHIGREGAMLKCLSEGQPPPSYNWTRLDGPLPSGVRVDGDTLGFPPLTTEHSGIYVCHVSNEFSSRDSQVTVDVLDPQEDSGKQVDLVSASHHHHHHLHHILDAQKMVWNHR
Protocol: Antibodies were tested for binding affinity to the wild-type human Nectin-4 protein by SPR (Surface Plasmon Resonance) methods. Measurements were performed on a Biacore T200 apparatus (Biacore GE Healthcare) at 25° C. Sensorgrams were analyzed with Biacore T100 Evaluation software. A CMR Sensor Chip with immobilized Protein A at about 600 RU was used. Anti-Nectin-4 antibodies were captured onto the Protein-A chip (antibodies diluted to 1 μg/ml in HBS-EP+1× buffer and injected over 120s at 40 μL/min). Recombinant human monomeric huNectin4-his-BirA protein was injected at different concentrations in a range from 100 nM to 1.56 nM over captured antibodies (HuNectin4-His-BirA diluted in HBS-EP+1× in ½ dilutions, injected over 120s at 40 μl/min) and allowed to dissociate for 600s. The chip was regenerated with NaOh 10 mM 2× for 30s at 40 μl/min. The sensorgram sets were fitted using the 1:1 kinetic binding model or two state reaction model, as a function of the profile of the curves.

SUM190 cells = assay: In vivo efficacy of ADCs, SUM190 mouse model of human breast cancer (Example 9); settings: single i.v. injection 3 mg/kg; antibodies conjugated to ggfg-Dxd, DAR=8
Protocol: When tumors reached a volume between 195 and 250 mm3, mice were randomized into groups of 9 mice for intravenous treatment with a single injection of 3 mg/kg of camptothecin ADCs. Tumor growth were followed twice a week. Kaplan Meier survival curves were established by using GraphPad Prism V7 software according to the following criteria: When the tumor volume reached 1500 mm3, mice were euthanized and considered dead on the day of sacrifice (D).

rat Nectin-4 = assay: Flow cytometry species cross-reactivity on CHO cells; type: binding
Protocol: Anti-Nectin-4 antibodies were tested by flow cytometry for binding to different CHO cell lines made to express respectively the mouse, cynomolgus and rat Nectin-4 protein (including an N-terminal V5 tag not shown in the sequences below).

[3] = 349 patients; cited from earlier work
[4] = failing prior chemotherapy; cited from earlier work
[5] = system: MC-38 cells that endogenously express MDR1 P-glycoprotein engineered to express Nectin-4; assay: In vitro efficacy of ADCs in Pgp-expressing cancer model (CTG, five days); type: cell-based; settings: presence or absence of cyclosporin A (5 μM); 150 nM ADC, normalized to control antibody
Protocol: MC-38 cells that endogenously express MDR1 P-glycoprotein (Pgp) were engineered to express Nectin-4 and cultured in DMEM+10% FBS. Cells were either treated with vehicle (DSMO) or with cyclosporin A (5 μM, stock solution in DMSO) known to act as an inhibitor of Pgp, in presence of ADCs.
The ADCs and the equivalent isotype control ADCs were used at dose range from 150 to 2.3 10^−3 nM. After five days of co-incubation with cells, cell viability was measured by addition of Cell Titer Glo™ (CTG) substrate. Luminescence vs. Ab concentration was plotted.

[6] = UC patients; cited from earlier work
SUM185 cells = assay: In vitro ADC cytotoxicity, 5 days, CTG; type: cell-based, human; settings: model of anti-HER2 resistance
Protocol: Luminescence vs. Ab concentration was plotted on graph.
For each ADC, a concentration range of ADC was incubated with nectin-4-expressing cells. After incubation, CTG substrate was added at 1/1 ratio and the luminescent signal was read with a plate reader (Enspire). It allowed quantifying the ATP present (indicator of metabolically active cells) which was proportional to cell viability.
This setting is used as a model of anti-HER2 resistance.
For each ADC, a concentration range of ADC was incubated with nectin-4-expressing cells. After incubation, CTG substrate was added at 1:1 ratio and the luminescent signal was read with a plate reader (Enspire), allowing quantification of the ATP present (indicator of metabolically active cells) which was proportional to cell viability.

Sequence of rat Nectin-4 (as listed by the source): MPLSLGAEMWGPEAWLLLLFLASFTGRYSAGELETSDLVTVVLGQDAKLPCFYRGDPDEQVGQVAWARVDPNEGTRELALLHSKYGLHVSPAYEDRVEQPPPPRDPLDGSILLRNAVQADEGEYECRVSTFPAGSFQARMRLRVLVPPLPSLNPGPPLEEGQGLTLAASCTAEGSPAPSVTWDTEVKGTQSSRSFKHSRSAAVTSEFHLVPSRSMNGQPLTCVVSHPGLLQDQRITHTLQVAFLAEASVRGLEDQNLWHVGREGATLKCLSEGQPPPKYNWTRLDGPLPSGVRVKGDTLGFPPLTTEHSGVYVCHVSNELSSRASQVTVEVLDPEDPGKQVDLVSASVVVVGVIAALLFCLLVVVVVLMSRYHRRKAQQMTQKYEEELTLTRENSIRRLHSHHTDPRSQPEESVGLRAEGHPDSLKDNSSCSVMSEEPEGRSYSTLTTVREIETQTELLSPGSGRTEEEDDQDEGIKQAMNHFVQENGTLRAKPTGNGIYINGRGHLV

In the case of Enfortumab [reference compound], the “binding to whole (wild-type) human Nectin-4 protein” value (wild-type human Nectin-4) is reported as “bound to the whole Nectin-4 protein”, the “binding to the C1C2 construct” value [1] is reported as “lost all binding to the C1C2 construct” and the Kd [2] is reported as 13.7 nM. The ka [2] was 340000 M⁻¹ s⁻¹, the kd [2] was 0.0047 s⁻¹ and the “control of tumor growth” value (SUM190 cells) was “no longer showed the ability to control tumor growth”. The “binding to rat Nectin-4 expressing CHO cells” value (rat Nectin-4) was “bind to rat Nectin-4”.
For `CC[C@@]1(O)C(=O)OCc2c1cc1n(c2=O)Cc2c-1nc1cc(F)c(C)c3c1c2[C@@H](N)CC3` [exatecan], the “efficacy in addition to gemcitabine versus gemcitabine alone” value [3] is listed as “not superior in efficacy to gemcitabine alone”.
In the case of `CC[C@@]1(O)C(=O)OCc2c1cc1n(c2=O)Cc2cc3c([N+](=O)[O-])cccc3nc2-1` [RFS2000], the activity in patients [4] is given as “did not exert significant activity”.
For PADCEV, the “influence of Pgp on anti-tumor activity” value [5] is listed as “negatively affected by Pgp”, the “CR (complete response rate)” value [6] is listed as 12% and the “ORR (objective response rate)” value [6] is listed as 44%. For the same molecule, the “discontinuation due to clinical symptoms” value [6] was 5%, the “discontinuation due to progressive disease as assessed by RECIST” value [6] was 48% and the “patients that discontinued experienced adverse events, notably neuropathy” value [6] was 18%. For the same molecule, the “killing of SUM185 cells (cell viability)” value (SUM185 cells) was “able to kill the SUM185 more efficiently than ENHERTU”.
